Experiments:
[1] = Differential scanning calorimetry (DSC), enthalpy of melting; format: physicochemical; conditions: 40-400° C., 10° C. per minute, initial heating curve
Protocol: (§1) To determine optimal process temperature, differential scanning calorimetry (DSC) and thermogravimetric analysis (TGA) were performed on the pure components, as well as on the cocrystal, shown in FIG. 2. A TA instruments DSC Q200 was used with a 40-400° C. heating range and 10° C. per minute heating rate. Only initial heating curves were collected and analyzed, without a cooling and secondary heating step. The initial melting peak temperature and enthalpy of melting values for each sample was determined using Universal Analysis software from TA instruments. A TA Instruments TGA Q500 was used with a 25-400° C. heating range and a 10° C. per minute heating rate. Powder was placed into a 5 mm diameter aluminum sample pan centered in a platinum hang pan. Enthalpies of sublimation were determined by plotting the logarithm of mass loss rate (−dm/dt) versus inverse temperature (1000/T).

[2] = Thermal stability (decomposition temperature); format: physicochemical; conditions: heating
Excerpt: Thermal analysis provides a good basis to determine the process window for successful cocrystal de-sublimation. The target temperature for the process is preferably in a region where sublimed API and conformer readily remain in the vapor phase. Too low, and the less volatile compound may de-sublimate within the heated tube, altering the ratio of API to conformer reaching a cooled surface (26). Moreover, decreasing temperature reduces sublimation rate and thus restricts the amount of material that can be processed. The upper temperature limit of the process is largely dictated by the thermal stability of each component. For example, CBZ may begin to decompose appreciably before reaching 180° C., limiting the heating temperature to well below its melting temperature. […] On the other hand, IND is stable up to 248° C., well above its melting temperature (27).

[3] = Thermogravimetric analysis (TGA), enthalpy of sublimation from Arrhenius plot of mass loss rate; format: physicochemical; conditions: for Sublimation ΔHsub: 25-400° C., 10° C. per minute, slope of log mass loss rate versus 1000/T; for Sublimation Tlow: lower temperature of sublimation range; for Sublimation Thigh: upper temperature of sublimation range
Protocol: as §1

[4] = heating; reference (27); cited from earlier work

Melting ΔHmelt [1]	temperature before which decomposition may begin appreciably [2]	Sublimation ΔHsub [3]	Sublimation Tlow [3]	Sublimation Thigh [3]	Compound	stable up to (temperature) [4]
26.5 kJ/mol	< 180 °C	203.3 kJ/mol	220 °C	280 °C	NC(=O)N1c2ccccc2C=Cc2ccccc21 [CBZ, carbamazepine]	
33.5 kJ/mol		114.2 kJ/mol	200 °C	320 °C	COc1ccc2c(c1)c(CC(=O)O)c(C)n2C(=O)c1ccc(Cl)cc1 [IND, indomethacin]	248 °C
36.3 kJ/mol		107.0 kJ/mol	200 °C	290 °C	O=C1NS(=O)(=O)c2ccccc21 [SAC, saccharine]	
33.0 kJ/mol		96.5 kJ/mol	140 °C	230 °C	O=C(O)CCC(=O)O [SUC, succinic acid]	
